The values that follow are results of earlier work, collected in patent US20130224131A1, “4-AMIDINO BENZYLAMINES FOR COSMETIC AND/OR DERMATOLOGICAL USE” (DSM IP ASSETS B.V., priority 2007, published 2013).

This data set concerns the target urokinase (Homo sapiens, UniProt P00749). The settings on record: qualitative statement, described in WO 01/96286.
`N=C(N)c1ccc(CNC(=O)C(CCc2ccccc2)NC(=O)[C@@H](CO)NS(=O)(=O)Cc2ccccc2)cc1` (stereo partly drawn) [benzylsulfonyl-D-Ser-homoPhe-(4-amidino-benzylamide)]: the urokinase-inhibiting activity entry is “potent and highly specific urokinase-inhibiting activity”.
For the compound `N=C(N)c1ccc(CNC(=O)[C@H](CCCCN)NC(=O)[C@@H](CO)NS(=O)(=O)Cc2ccccc2)cc1` [benzylsulfonyl-D-Ser-Lys-(4-amidino-benzylamide)], the urokinase-inhibiting activity entry is “potent and highly specific urokinase-inhibiting activity”.
As to `N=C(N)c1ccc(CNC(=O)CNC(=O)[C@@H](CO)NS(=O)(=O)Cc2ccccc2)cc1` [benzylsulfonyl-D-Ser-Gly-4-amidino-benzylamide], the urokinase-inhibiting activity entry is “potent and highly specific urokinase-inhibiting activity”.
